In assay [1] the test system is Calpain in crude brain extracts. Briefly: Ca2+-stimulated spectrin proteolysis in crude brain extracts (Example 2). In kind it is biochemical. As to conditions: for inhibition of spectrin proteolysis in crude brain extracts: 100 μM. Put shortly:
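Brain tissue was homogenized in 10 mM Tris pH 7.4, 0.32 M sucrose, 1 mM EGTA and 1 mM DTT, and nuclei and debris were removed. Calpain activity was scored as Ca^2+-stimulated proteolysis of endogenous spectrin.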

The test system of another assay is Calpain within platelets. Briefly: Platelet membrane permeation assay, spectrin proteolysis (Examples 4A, 4B). In kind it is cell-based, rat. As to conditions: for inhibition of Calpain within platelets: 100 μM, A23187 1 μM; for IC50: concentration at which 50% of the Calpain activation present in controls occurred. Put shortly: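 Rat (Sprague-Dawley) platelets at 10^7 cells/ml in HEPES buffer pH 7.4, preincubated 5 min with inhibitor, then 5 min with 1 μM A23187 to activate calpain. Spectrin proteolysis assessed by SDS-PAGE and anti-spectrin immunoblot, quantified by densitometry.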

The target in assay [2] is T1, calpain II from rabbit muscle (Oryctolagus cuniculus, UniProt P06814).
T1 sequence (P06814 1-422): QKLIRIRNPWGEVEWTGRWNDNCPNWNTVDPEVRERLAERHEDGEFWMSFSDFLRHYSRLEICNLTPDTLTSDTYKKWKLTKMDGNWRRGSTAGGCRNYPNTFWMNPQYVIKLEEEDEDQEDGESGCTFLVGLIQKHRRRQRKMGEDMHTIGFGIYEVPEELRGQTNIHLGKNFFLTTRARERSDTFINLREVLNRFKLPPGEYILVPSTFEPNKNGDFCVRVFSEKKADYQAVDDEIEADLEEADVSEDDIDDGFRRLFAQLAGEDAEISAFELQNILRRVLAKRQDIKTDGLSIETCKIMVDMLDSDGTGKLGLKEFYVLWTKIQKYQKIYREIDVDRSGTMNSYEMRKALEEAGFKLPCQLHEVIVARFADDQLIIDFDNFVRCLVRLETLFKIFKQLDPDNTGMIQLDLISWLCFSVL
T1 sequence (P06813 1-266 partner): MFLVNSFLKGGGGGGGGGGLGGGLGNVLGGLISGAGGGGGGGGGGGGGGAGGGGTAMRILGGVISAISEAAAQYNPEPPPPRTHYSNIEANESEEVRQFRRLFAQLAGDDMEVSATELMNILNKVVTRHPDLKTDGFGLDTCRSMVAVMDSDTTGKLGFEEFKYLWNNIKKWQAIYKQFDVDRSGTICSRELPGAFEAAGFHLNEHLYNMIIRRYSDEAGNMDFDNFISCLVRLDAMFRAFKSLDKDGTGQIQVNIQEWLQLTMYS
Briefly: Calpain II Ki (Table 1B(i)). It counts as biochemical. How it is done: The Peptide Keto-Compounds are reversible inhibitors of Calpains and other thiol proteases. […] Cathepsin B from bovine spleen was assayed using Z-[…]-nitrophenylphosphate as substrate. […] The Ki value for the inhibition of Calpains and cathepsin B by several Peptide Keto-Compounds are shown in μM (micromolar). The values for leupeptin, which is commercially available from Calbiochem of La Jolla, Calif., are shown for comparison.

In another assay the target is PP Elastase (Sus scrofa, UniProt P00772). Description: PP Elastase KI (Table 1B(ii)). In kind it is biochemical. An excerpt: (§1) We tested the ability of an additional group of Peptide Keto-Compounds to inhibit several proteases in order to evaluate their specificity for Calpain.
The target of the next assay is Cathepsin B (Bos taurus, UniProt P07688). Briefly: Cathepsin B KI (Table 1B(ii)). As to conditions: read-out: KI CathB. It counts as biochemical.
Description: as §1

Setting [3] is: Suc-Leu-Tyr-amidomethylcoumarin, HEPES pH 7.2, read-out: Ki Calpain II.

Entries after “also recorded” stand apart in the source; their conditions may differ. Read-outs that look alike come from different tables or passages of the source. Where a SMILES comes first, the peptide text is derived from it. The star is where a group is joined. Boc = CC(C)(C)OC(=O)*; CH2Cl = ClC*

PP Elastase, sequence (P00772 27-266): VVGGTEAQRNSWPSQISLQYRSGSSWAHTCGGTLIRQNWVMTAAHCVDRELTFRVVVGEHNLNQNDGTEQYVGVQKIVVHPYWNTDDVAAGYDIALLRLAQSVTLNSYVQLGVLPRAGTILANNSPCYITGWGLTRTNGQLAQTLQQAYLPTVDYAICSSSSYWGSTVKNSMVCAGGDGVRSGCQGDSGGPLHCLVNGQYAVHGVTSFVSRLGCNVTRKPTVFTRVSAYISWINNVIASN

Turning to `CCC(NC(=O)[C@@H]1CCCN1C(=O)[C@H](C)NC(=O)[C@H](C)NC(=O)CCC(=O)OC)C(=O)C(=O)OC` (mixture of isomers) [MeO-Suc-Ala-Ala-Pro-Abu-COOMe, MeO-Suc-Ala-Ala-Pro-DL-Abu-CO2 Me], the “inhibition of spectrin proteolysis in crude brain extracts” value (“inhibition of spectrin proteolysis” below) in assay [1] is listed as “significant inhibition”. The “inhibition of Calpain within platelets” value in the assay on Calpain within platelets is reported as “significant inhibition”.
On to `CCOC(=O)C(=O)C(CC)NC(=O)[C@H](C)NC(=O)[C@H](C)NC(=O)OCc1ccccc1` (mixture of isomers) [Z-Ala-Ala-DL-Abu-COOEt, Z-Ala-Ala-DL-Abu-CO2 Et], for which the Ki (in general, a measure of affinity in units of concentration, obtained from inhibition or displacement) in assay [2] (setting [3]) came out at 200 µM. Also, the “inhibition of spectrin proteolysis” value in assay [1] is recorded as “significant inhibition”. Also, in the assay on Calpain within platelets, the “inhibition of Calpain within platelets” value is given as “significant inhibition”.
With `CCOC(=O)C(=O)[C@H](CC)NC(=O)[C@H](CC(C)C)NC(=O)OCc1ccccc1` (racemic) [Z-Leu-Abu-COOEt, Z-Leu-DL-Abu-COOEt], the values for the Ki (at PP Elastase; in assay [2] (setting [3]); on Cathepsin B) were > 100 µM, 0.4 µM and 30 µM, respectively. In addition, the “inhibition of spectrin proteolysis” value in assay [1] is “significant inhibition”. Also, the “inhibition of Calpain within platelets” value in the assay on Calpain within platelets is listed as “significant inhibition”. In addition, in the assay with Calpain within platelets, half-maximal inhibition (IC50) required 42 µM.
Turning to `CCCC(NC(=O)[C@H](CC(C)C)NC(=O)OCc1ccccc1)C(=O)C(=O)OCC` (mixture of isomers) [Z-Leu-Nva-COOEt, Z-Leu-DL-Nva-COOEt], the Ki was 2.3 µM on PP Elastase, 1.2 µM in assay [2] (setting [3]) and 25 µM on Cathepsin B. Moreover, the “inhibition of spectrin proteolysis” value in assay [1] is recorded as “significant inhibition”. For the same compound, the “inhibition of Calpain within platelets” value with Calpain within platelets is listed as “significant inhibition”. Besides, it took 40 µM to reach half-maximal inhibition in the assay with Calpain within platelets (IC50).
For the compound `CC(C)CC(NC(=O)CNC(=O)OC(C)(C)C)C(=O)NC(Cc1ccccc1)C(=O)CCl` (stereo not drawn) [Boc-Gly-Leu-Phe-CH2 Cl] (Boc-Gly-Leu-Phe-CH2Cl; configuration not given here), the “inhibition of spectrin proteolysis” value in assay [1] is on record as “significant inhibition”. Further, the “inhibition of Calpain within platelets” value in the assay on Calpain within platelets is “significant inhibition”.
On to `N=C(N)SCCCOc1oc(=O)c2ccccc2c1Cl` [CiTprOIC, 4-chloro-3-(3-isothiureidopropoxy)isocoumarin], for which the “inhibition of spectrin proteolysis” value in assay [1] was “significant inhibition”. The “inhibition of Calpain within platelets” value in the assay with Calpain within platelets is “significant inhibition”.
Regarding `CC(=O)N[C@@H](CC(C)C)C(=O)N[C@@H](CC(C)C)C(=O)N[C@H](C=O)CCCNC(=N)N` [Leupeptin, Ac-Leu-Leu-Arg-H, reference compound], affinity in assay [2] was put at a Ki of 0.43 µM. For the same compound, the “inhibition in the system of Example 2” value in assay [1] (concentration not given) is “showed inhibition”. Further, in the assay on Calpain within platelets (concentration not given), the “effect on intracellular (platelet) Calpain” value is reported as “little effect; also recorded: failed to exhibit Calpain inhibitory activity”.
As for `N=C(N)SCCCOc1oc(=O)c2cc(N)ccc2c1Cl` [NH2 -CiTPrOIC (ACITIC), 7-amino-4-chloro-3-(3-isothiureidopropoxy)isocoumarin], the “inhibition of spectrin proteolysis” value in assay [1] is on record as “significant inhibition”. Also, the “inhibition of Calpain within platelets” value in the assay on Calpain within platelets is “significant inhibition”.
As for `CCCCC(NC(=O)C(CC(C)C)NC(=O)OCc1ccccc1)C(=O)C(=O)OCC` (stereo not drawn) [Z-Leu-Nle-COOEt, Z-Leu-NLeu-CO2 Et], the values for the Ki (on PP Elastase; in assay [2] (setting [3]); at Cathepsin B) were 2.2 µM, 0.18 µM and 20 µM, respectively. Also, in assay [1], the “inhibition of spectrin proteolysis” value is “significant inhibition”. Moreover, the “inhibition of Calpain within platelets” value with Calpain within platelets was “significant inhibition”. In addition, the IC50 (as a rule, the concentration at which inhibition is half-maximal) in the assay on Calpain within platelets is 20 µM.
With `CCOC(=O)C(=O)C(Cc1ccccc1)NC(=O)C(CC(C)C)NC(=O)OCc1ccccc1` (stereo not drawn) [Z-Leu-Phe-COOEt], the Ki on PP Elastase is > 100 µM; in assay [2] (setting [3]), 0.4 µM; at Cathepsin B, 340 µM. The “inhibition of spectrin proteolysis” value in assay [1] is “significant inhibition”. Besides, in the assay on Calpain within platelets, the “inhibition of Calpain within platelets” value is given as “significant inhibition”. In addition, the half-maximal inhibitory concentration (IC50) in the assay with Calpain within platelets stood at 42 µM.
